Laboratory results published in patent publication US20240052300A1, “DIFFUSION GRADIENT ASSAY FOR ANTI-CD3-CONTAINING MOLECULES” (priority 2020, published 2024).
Side-chain parts run from the residue outwards. [ ]: non-standard residue; d: D form. pGlu = O=C1CC[C@@H](C(=O)O)N1

Tests used:
[1] = test system: recombinant canonical BiTE® protein; experiment: Size exclusion chromatography with fluorescence detection of CD3-AF488 bound to secreted BiTE; type: binding; conditions: secretion medium mixed with reagent, capture chromatography, FIG. 1B
Description: 100 μl of 0.2 μm filtrated mammalian cell culture samples containing expressed BiTE® constructs featuring human CD3e binding binders were mixed with 2.5 μl peptide-fluorochrome conjugate and transferred into autosampler vials. The vials were placed onto an autosampler connected to an Ultra High Performance Liquid Chromatography ACQUITY UPLC device (Waters, Eschborn, Germany) featuring a fluorescence detector. An analytical size exclusion chromatography BEH200 SEC 1.7 μm column (Waters, Eschborn, Germany) was connected to the UHPLC and equilibrated with a water-based buffer system containing 10 mM Citric Acid, 75 mM Lysine HCl, adjusted to pH 7.0. 10 μl of each prepared sample were applied to the column and eluted using isocratic elution. Detection was performed by using fluorescence detection at 490 nm excitation and 520 nm emission wavelength. […] Both, unpurified secretion medium and purified material were subsequently analyzed by size exclusion chromatography equipped with fluorescence detector (FIG. 1B, C). This setup allowed monitoring of the elution profile of the CD3-AF488 peptide and its bound protein complexes in the context of the whole protein content present in analyzed samples. The UV absorbance (A280 nm) elution profile of purified material allowed for identification of BiTE® monomers, dimers and HMW species (FIG. 1B).

[2] = test system: BiTE® recombinant protein
Description: The ability of the CD3-AF594 peptide conjugate to be used for diffusion gradient assays to detect secretion of recombinant CD3 binders on Berkeley Light's nanofluidic chip (FIG. 2A) was assessed next. Cells expressing the BiTE® modality were loaded onto a BLI platform using a standard cell line development workflow. Single cells were deposited in Nanopens™, and subsequently cultured under perfusion for the duration of 6 days. The CD3 reagent was used in a diffusion gradient assay using optimized settings as described herein.

[3] = test system: IgG-fusion protein; conditions: day 5 on chip; FIG. 3A-C
Description: (§1) The CD3 diffusion assay peptide reagent was resuspended in DMSO at 1 mg/ml and stored protected from light at −20° C. for long term storage. For short term storage the assay reagent was further diluted to 4 μg/ml in PBS and stored at 4° C. Prior executing the diffusion gradient assay to detect BiTE® secretion on nanofluidic chip the CD3 diffusion assay reagent was diluted in cell culture medium to 0.2 μg/ml concentration, filtered through 22 μm filter, transferred to 96 well plate and incorporated on the chip. The assay reagent was perfused on the chip at 0.014 μl/sec flow rate for the duration of 45 minutes. In FIG. 4, once the equilibration step was complete the assay reagent was flushed out with 250 μl of cell culture medium at a 20/sec flow rate followed by an additional flush with the cell culture medium at the 0.1667 μl/sec flow rate for the duration of 20 mins. The chip was then imaged through TRED filter cube using 900 ms exposure time and 100% illumination settings.
(§2) In FIG. 2, the CD3 diffusion assay reagent was used at 0.125 μg/ml final concentration. […]
(§3) For CD3 diffusion assays shown in FIGS. 3 and 4, the reference assay was run on an empty chip in order to generate reference images used for normalizing the CD3 diffusion assay score against chip position effects and background fluorescence signal. […]
(§4) Next, the specificity of the BiTE® diffusion gradient assay was assessed. […]

[4] = test system: BiTE®-Fc fusion; experiment: On-chip CD3 diffusion gradient assay, BiTE-Fc secreting cells; conditions: day 5 on chip; FIG. 3A,B
Description: as §1, §2, §3, §4

| Substance | complex formation with BiTE® recombinant protein (fluorescent SEC elution profile) [1] | fluorescent signal in pens with BiTE® expressing cells vs empty pens ([2]; 6 days perfusion culture, reagent 0.125 μg/ml, FIG. 2B) | detection of secretion of BiTE® expressing cell lines ([2]; day 5 on chip, FIG. 3A-C) | detection of secretion of the IgG-fusion protein [3] | detection of secretion of the BiTE®-Fc protein product [4] |
| --- | --- | --- | --- | --- | --- |
| CD3-AF488 peptide ([pGlu]DGNEEMGGC([C5 maleimide-Alexa Fluor 488])-NH2) | formed a complex with the BiTE® recombinant protein |  |  |  |  |
| Pyroglutamate-DGNEEMGGC-AF594 [CD3-AF594 conjugate] |  | High fluorescent signal | efficiently detected secretion | failed to detect secretion | detected |
